Patent US6806230B1, “Pyrimidine derivatives and herbicides containing them” (Kumiai Chemical Industry Co., Ltd., priority 1999, dated 2004)
Several values for one entry are separate records, joined by “and”; a condition that tells them apart may be missing. Identical values can stand only once.

What was measured:
[1] = system: monochoria (Mo); test: Test Example 1: herbicidal effects by flooded paddy field treatment; type: in vivo; set-up: herbicidal effects, Mo (monochoria):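 0-5 growth inhibition grade; 5 = over 90%; 4 = 70-90%; 3 = 50-70%; 2 = 30-50%; 1 = 10-30%; 0 = under 10%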; details: for Herbicidal effect index, Mo: dose 100 gai/10a, examined on 21st day after treatment, index 0-5 per Table 44; for herbicidal effects, Mo (monochoria): dose 100 g active ingredient per 10 ares, examined on the 21st day after treatment, standards of Table 44;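 on Herbicidal effect index, Mo: 0-5 growth inhibition grade; 5 = over 90%; 4 = 70-90%; 3 = 50-70%; 2 = 30-50%; 1 = 10-30%; 0 = under 10%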
In short: (§1)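 Seeds were sown in puddled paddy soil in pots and flooded to 3 cm. The next day a water-diluted wettable powder was dripped onto the water surface at 100 g active ingredient per 10 ares. Plants grew in a greenhouse, and herbicidal effect was scored on a rating scale 21 days after treatment.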

[2] = system: barnyard grass (Ec); test: Test Example 3: herbicidal effects by foliage treatment in upland field; type: in vivo; set-up: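 0-5 growth inhibition grade; 5 = over 90%; 4 = 70-90%; 3 = 50-70%; 2 = 30-50%; 1 = 10-30%; 0 = under 10%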; details: dose 100 g active ingredient per 10 ares, examined on the 14th day after treatment
In short: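 Barnyard grass and green foxtail were grown in upland soil for 2 weeks in a greenhouse. A water-diluted wettable powder was sprayed over the foliage at 100 l per 10 ares, giving 100 g active ingredient per 10 ares. Herbicidal effect was scored on day 14 after treatment.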

[3] = system: barnyard grass (Eo); test: Test Example 1: herbicidal effects by flooded paddy field treatment; type: in vivo; set-up: herbicidal effects, Eo (barnyard grass):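 0-5 growth inhibition grade; 5 = over 90%; 4 = 70-90%; 3 = 50-70%; 2 = 30-50%; 1 = 10-30%; 0 = under 10%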; details: for Herbicidal effect index, Eo: dose 100 gai/10a, examined on 21st day after treatment, index 0-5 per Table 44; for herbicidal effects, Eo (barnyard grass): dose 100 g active ingredient per 10 ares, examined on the 21st day after treatment, standards of Table 44;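 on Herbicidal effect index, Eo: 0-5 growth inhibition grade; 5 = over 90%; 4 = 70-90%; 3 = 50-70%; 2 = 30-50%; 1 = 10-30%; 0 = under 10%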
In short: as §1

[4] = system: barnyard grass (Ec); test: Test Example 2: herbicidal effects by upland soil treatment; type: in vivo; set-up: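 0-5 growth inhibition grade; 5 = over 90%; 4 = 70-90%; 3 = 50-70%; 2 = 30-50%; 1 = 10-30%; 0 = under 10%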; details: dose 100 g active ingredient per 10 ares, examined on the 21st day after treatment; for herbicidal effects, Ec (barnyard grass): standards of Table 44
In short: (§2)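 Pre-emergence test: barnyard grass and green foxtail sown in upland soil, then soil surface sprayed with wettable-powder formulation at 100 g active ingredient per 10 ares (100 l per 10 ares). Grown in greenhouse; herbicidal effect scored on a rating scale 21 days after treatment.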

[5] = system: green foxtail (Se); test: as above; type: in vivo; details: dose 100 g active ingredient per 10 ares, examined on the 21st day after treatment, standards of Table 44;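 further: 0-5 growth inhibition grade; 5 = over 90%; 4 = 70-90%; 3 = 50-70%; 2 = 30-50%; 1 = 10-30%; 0 = under 10%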
In short: as §2

[6] = system: barnyard grass (Eo); test: Test Example 4: selectivity for a crop plant by flooded paddy field treatment; type: in vivo; set-up: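 0-5 growth inhibition grade; 5 = over 90%; 4 = 70-90%; 3 = 50-70%; 2 = 30-50%; 1 = 10-30%; 0 = under 10%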; details: barnyard grass, dose 25 gai/10a, 21st day after treatment, index per Table 44
In short: (§3)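 Paddy soil in pots was puddled, weed seeds were sown, second-leaf-stage rice was transplanted, and the pots were flooded to 3 cm. The next day a water-diluted wettable powder was dropped onto the water surface at 25 g active ingredient per 10 ares. Herbicidal effect was scored on a rating scale 21 days after treatment in a greenhouse.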

[7] = system: rice (Or); test: as above; type: in vivo; set-up: scale not given here; details: rice transplanted at second leaf stage, dose 25 gai/10a, 21st day after treatment, index per Table 44
In short: as §3

[8] = system: monochoria (Mo); test: as above; type: in vivo; set-up: scale not given here; details: monochoria, dose 25 gai/10a, 21st day after treatment, index per Table 44
In short: as §3

Row | SMILES | Herbicidal effect index, Mo [1] | Ec (herbicidal effects, index) [2] | Herbicidal effect index, Eo [3] | melting point | herbicidal effects, Ec (barnyard grass) [4] | herbicidal effects, Se (green foxtail) [5] | herbicidal effects, Mo (monochoria) [1] | herbicidal effects, Eo (barnyard grass) [3] | Ec (herbicidal effects, index) [4] | Eo (herbicidal effect index) [6] | Or (herbicidal effect index on crop) [7] | Mo (herbicidal effect index) [8]
1 | CC(C)C(c1cncnc1C(F)(F)F)N(C)C(=O)Cc1ccccc1 (stereo not shown) [Compound 1-8, N-methyl-N-[2-methyl-1-(4-trifluoromethylpyrimidin-5-yl)propyl]phenylacetamide] | 5 | 5 | 5 | 106 to 109 °C | 5 | 5 |  |  |  |  |  | 
2 | COCN(C(=O)Cc1ccc(Cl)cc1)C(c1cncnc1C(F)(F)F)C(C)C (stereo not shown) [Compound 1-105, N-methoxymethyl-N-[2-methyl-1-(4-trifluoromethylpyrimidin-5-yl)propyl]-4-chlorophenylacetamide] | 5 |  | 5 | 142 to 145 °C | 5 | 5 |  |  |  |  |  | 
3 | CC(C)C(c1cncnc1C(F)(F)F)N(C)C(=S)Cc1ccccc1 (stereo not shown) [Compound 1-142, N-methyl-N-[2-methyl-1-(4-trifluoromethylpyrimidin-5-yl)propyl]phenylthioacetamide] |  | 4 |  | 93 to 94 °C | 5 | 5 | 5 | 5 |  |  |  | 
4 | CC(C)C(c1cncnc1C(F)(F)F)N(C)C(=O)N(C)Cc1ccc(Cl)cc1 (stereo not shown) [Compound 1-532, 1-(4-chlorobenzyl)-1,3-dimethyl-3-[2-methyl-1-(4-trifluoromethyl-pyrimidin-5-yl)-propyl]-urea] |  | 5 |  | 95 to 98 °C and 95 to 96 °C |  |  | 5 | 5 | 5 | 5 | 1 | 5
